Reference: patent US20220264878A1, “HERBICIDAL COMPOSITION CONTAINING R-TYPE PYRIDYLOXY CARBOXYLIC ACID DERIVATIVE AND USE THEREOF” (Qingdao Kingagroot Chemical Compound Co., Ltd., priority 2019, published 2022)

How the values were obtained:
Assay type in all cases: in vivo
Echinochloa oryzoides [1] = experiment: Post-emergence foliage spray, pot culture, fresh weight inhibition (Tables 1-48, 51-98, 101-148; 24 days)
How it was run: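 Pot-grown weeds were thinned to 15 per pot (45 per treatment) and sprayed on foliage at the 5–6-leaf stage for grasses or the 6–7-leaf stage for broadleaves. Agents were dissolved in acetone with 0.1% Tween-80 and applied at 450 kg/ha spray volume and 0.3 MPa. Plants were then kept in a greenhouse. Above-ground fresh weight of survivors, with dead plants counted as zero, gave inhibition versus a solvent/emulsifier blank.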

Echinochloa oryzoides [2] = experiment: Soil sealing treatment, pot culture, fresh weight inhibition (Tables 149, 150)
Description: (§1) A method for investigating absolute number was employed, wherein whole seedlings of survival weeds were cut off with a blade along the soil surface, and the fresh weight of the weeds was weighed with an analytical balance. For dead weeds, the fresh weight thereof was zero.
(§2) Theoretical fresh weight inhibition rate of a combination of two active ingredients in each group was calculated by the Gowing method (E0=X+Y−X*Y/100), and then compared with an actually measured inhibition rate (E), thereby effect of the combination (hereafter referred to as combined effect) on weeds was evaluated: the value of E-E0, which was greater than 10%, corresponded to a synergistic effect, the value of E-E0, which was less than −10%, corresponded to an antagonistic effect, and the value of E-E0, which was from −10% to 10%, corresponded to an additional effect. […] Wherein, in the formula, X represented the fresh weight inhibition rate of the active ingredient A in a dosage of P, and Y represented the fresh weight inhibition rate of the active ingredient B in a dosage of Q.
(§3) Echinochloa crusgalli var zelayensis were collected in Huai'an of Jiangsu Province; Echinochloa caudate were collected in Pingluo of Ningxia Province; Echinochloa oryzoides were collected in Qiqiha'er of Heilongjiang Province.
(§4) The culture was carried out in a controllable sunlight greenhouse at 20 to 30° C., in natural light, and relative humidity of 57% to 72%. […] The test soil was placed quantitatively to ¾ of the pots and then watered from the bottom of the pots to completely wet the soil to saturation. The pretreated test weed seeds were uniformly sowed on the surface, then covered with 0.5-2 cm soil according to the seed size, and ready-for use 24 hours after sowing.
(§5) The technical materials were all dissolved in acetone, and diluted with an aqueous solution containing 0.1% emulsifier T-80. The dilution is performed as required.
(§6) A ratio of A to the active ingredient B and amounts thereof in each group depends on the characteristics and toxicity of the two agents, as well as the main application purpose of a corresponding formulation. Based on the pre-tests in this study, the dosage of A and the active ingredient B applied alone and in combination were shown in the tables. Water containing the solvent and emulsifier same with the above groups but free of the agents was used as a blank control.
(§7) 3 pots with 30 weed seeds per pot were treated in one treatment with 4 replications per treatment.
(§8) The pots which were sowed and mulched were evenly placed on a platform with an area of 0.5 m^2, and a solution of agents was sprayed on soil surface thereof by the 3WP-2000-type walking spray tower at a dosage of […] and at a spray pressure of 0.3 MPa. After all the solution was sprayed, the valve was closed. After 30 seconds, the door of the spray tower was opened, and the nutritional bowl was taken out. Then the valve was opened, and the spray tube was cleaned by spraying 50 ml of water.
(§9) This section was same as the section 4) in the post-emergence treatment by performing foliage spray, and was not repeated herein.

Alopecurus japonicus = experiment: Post-emergence foliage spray, pot culture, fresh weight inhibition (Tables 151-206; 20 days); settings: 20 days
How it was run: (§10)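 Field-collected weeds grown in pots in a greenhouse (20-30° C., natural light, 57-72% RH), 15 per pot, 3 pots × 4 replicates. Single foliar spray at 4-5 leaves (grasses) or 5-6 leaves (broadleaf) with acetone/0.1% Tween-80 dilutions at 450 kg/ha, 0.3 MPa. Above-ground fresh weight inhibition versus solvent blank at 20 days.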

Digitaria sanguinalis = experiment: as above; settings: 20 days
How it was run: as §10

Eleusine indica = experiment: as above; settings: 20 days
How it was run: as §10

Sinapis arvensis = experiment: as above; settings: 20 days
How it was run: as §10

Amaranthus retroflexus = experiment: as above; settings: 20 days
How it was run: (§11)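 Pre-germinated seeds (25° C soak 6 h, 28° C dark) grown in pots, thinned to 15 per pot; foliage-sprayed at 4~5-leaf (grasses) or 5~6-leaf (broadleaf) stage, 450 kg/ha spray volume, 0.3 MPa. Agents in acetone diluted with 0.1% Tween-80 water; solvent blank control. Above-ground fresh weight weighed, dead weeds scored zero.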

Capsella bursa-pastoris = experiment: as above; settings: 20 days
How it was run: as §11

[3] = test system: Echinochloa crusgalli var. zelayensis; experiment: Soil sealing treatment, pot culture, fresh weight inhibition (Tables 49, 50)
Description: as §1, §2, §3, §4, §5, §6, §7, §8, §9

Echinochloa caudate = experiment: Soil sealing treatment, pot culture, fresh weight inhibition (Tables 99, 100)
Description: as §1, §2, §3, §4, §5, §6, §7, §8, §9

Structure (SMILES): C[C@@H](Oc1nc(F)c(Cl)c(N)c1Cl)C(=O)[O-].[K+] [Compound A4, A1 potassium salt]
- Control effect (%) of A applied alone in corresponding dose (Echinochloa oryzoides [1]; A 75 g a.i./ha): 52.6%
- Control effect (%) of A applied alone in corresponding dose (Echinochloa oryzoides [1]; A 150 g a.i./ha): 74.7%
- Control effect (%) of A applied alone in corresponding dose (Echinochloa oryzoides [1]; Table 101, 75 g a.i./ha): 52.6%
- Control effect (%) of A applied alone in corresponding dose (Echinochloa oryzoides [1]; Table 101, 150 g a.i./ha): 74.7%
- Control effect (%) of A applied alone in corresponding dose (Echinochloa oryzoides [1]; Table 102, 75 g a.i./ha): 52.6%
- Control effect (%) of A applied alone in corresponding dose (Echinochloa oryzoides [1]; Table 102, 150 g a.i./ha): 74.7%
- Control effect (%) of A applied alone in corresponding dose (Echinochloa oryzoides [1]; Table 104, 75 g a.i./ha): 52.6%
- Control effect (%) of A applied alone in corresponding dose (Echinochloa oryzoides [1]; Table 104, 150 g a.i./ha): 74.7%
- Control effect (%) of A applied alone in corresponding dose (Echinochloa oryzoides [1]; Table 106, 75 g a.i./ha): 52.6%
- Control effect (%) of A applied alone in corresponding dose (Echinochloa oryzoides [1]; Table 106, 150 g a.i./ha): 74.7%
- Control effect (%) of A applied alone in corresponding dose (Echinochloa oryzoides [1]; Table 107, 75 g a.i./ha): 52.6%
- Control effect (%) of A applied alone in corresponding dose (Echinochloa oryzoides [1]; Table 107, 150 g a.i./ha): 74.7%
- Control effect (%) of A applied alone in corresponding dose (Echinochloa oryzoides [1]; Table 108, 75 g a.i./ha): 52.6%
- Control effect (%) of A applied alone in corresponding dose (Echinochloa oryzoides [1]; Table 108, 150 g a.i./ha): 74.7%
- Control effect (%) of A applied alone in corresponding dose (Echinochloa oryzoides [1]; Table 109, 75 g a.i./ha): 52.6%
- Control effect (%) of A applied alone in corresponding dose (Echinochloa oryzoides [1]; Table 109, 150 g a.i./ha): 74.7%
- Control effect (%) of A applied alone in corresponding dose (Echinochloa oryzoides [1]; Table 110, 75 g a.i./ha): 52.6%
- Control effect (%) of A applied alone in corresponding dose (Echinochloa oryzoides [1]; Table 110, 150 g a.i./ha): 74.7%
- Control effect (%) of A applied alone in corresponding dose (Echinochloa oryzoides [2]; A 75 g a.i./ha): 18.9%
- Control effect (%) of A applied alone in corresponding dose (Echinochloa oryzoides [2]; A 150 g a.i./ha): 42.5%
- Control effect (%) of A applied alone in corresponding dose (Alopecurus japonicus; A 75 g a.i./ha): 24.9%
- Control effect (%) of A applied alone in corresponding dose (Alopecurus japonicus; A 150 g a.i./ha): 47.2%
- Control effect (%) of A applied alone in corresponding dose (Digitaria sanguinalis; A 75 g a.i./ha): 22.2%
- Control effect (%) of A applied alone in corresponding dose (Digitaria sanguinalis; A 150 g a.i./ha): 56.4%
- Control effect (%) of A applied alone in corresponding dose (Eleusine indica; A 75 g a.i./ha): 38.5%
- Control effect (%) of A applied alone in corresponding dose (Eleusine indica; A 150 g a.i./ha): 69.2%
- Control effect (%) of A applied alone in corresponding dose (Sinapis arvensis; A 75 g a.i./ha): 41.1%
- Control effect (%) of A applied alone in corresponding dose (Sinapis arvensis; A 150 g a.i./ha): 65.9%
- Control effect (%) of A applied alone in corresponding dose (Amaranthus retroflexus; A 75 g a.i./ha): 26.7%
- Control effect (%) of A applied alone in corresponding dose (Amaranthus retroflexus; A 150 g a.i./ha): 57.2%
- Control effect (%) of A applied alone in corresponding dose (Capsella bursa-pastoris; A 75 g a.i./ha): 44.2%
- Control effect (%) of A applied alone in corresponding dose (Capsella bursa-pastoris; A 150 g a.i./ha): 67.2%

Structure (SMILES): C#CCOc1cc(-n2nc(C(C)(C)C)oc2=O)c(Cl)cc1Cl [oxadiargyl]
- Control effect (%) of B applied alone in corresponding dose ([3]; oxadiargyl 7.5 g a.i./ha): 1.6%
- Control effect (%) of B applied alone in corresponding dose ([3]; oxadiargyl 15 g a.i./ha): 10.4%
- Control effect (%) of B applied alone in corresponding dose ([3]; oxadiargyl 30 g a.i./ha): 38.8%
- Control effect (%) of B applied alone in corresponding dose ([3]; oxadiargyl 60 g a.i./ha): 63.5%
- Control effect (%) of B applied alone in corresponding dose (Echinochloa caudate; Table 100, 7.5 g a.i./ha): 1.7%
- Control effect (%) of B applied alone in corresponding dose (Echinochloa caudate; Table 100, 15 g a.i./ha): 10.8%
- Control effect (%) of B applied alone in corresponding dose (Echinochloa caudate; Table 100, 30 g a.i./ha): 37.2%
- Control effect (%) of B applied alone in corresponding dose (Echinochloa caudate; Table 100, 60 g a.i./ha): 62.5%
- Control effect (%) of B applied alone in corresponding dose (Echinochloa oryzoides [2]; B 7.5 g a.i./ha): 2.6%
- Control effect (%) of B applied alone in corresponding dose (Echinochloa oryzoides [2]; B 15 g a.i./ha): 12.7%
- Control effect (%) of B applied alone in corresponding dose (Echinochloa oryzoides [2]; B 30 g a.i./ha): 41.6%
- Control effect (%) of B applied alone in corresponding dose (Echinochloa oryzoides [2]; B 60 g a.i./ha): 63.3%
